Measured values from US20210330611A1, “THERAPY FOR NEUROLOGICAL DISEASES/DISORDERS” (priority 2020, published 2021).
Where a name gives a salt, the structure may show the parent alone. Read-outs that look alike come from different tables or passages of the source.

Assays:
[1] = system: fibrin- and LPS-induced microglia activation; assay: cells; format: cell-based, rat
primary rat microglia [2] = system: primary rat microglia;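 on Fibrin % cell toxicity: share of dead cells sized under 150 µm2 at 10 µM in fibrin-stimulated microglia HTS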
primary rat microglia [3] = system: primary rat microglia; remark: listed apart in the source;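 on Fibrin % cell toxicity: share of dead cells sized under 150 µm2 at 10 µM in fibrin-stimulated microglia HTS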
[4] = system: fibrin-induced microglia activation; assay: Image-based assay of fibrin-induced microglia activation (HTS and dose response); format: cell-based, rat; conditions: for inhibition at 10 µM: Rattus norvegicus, Microglia, read-out: Fibrin % inhibition
[5] = system: LPS-induced microglia activation; assay: Image-based assay of LPS-induced microglia activation (HTS and dose response); format: cell-based, rat
[6] = HTS of 1907 compounds, quadrant by fibrin and LPS inhibition
[7] = primary microglia HTS, 10 μM, fibrin-stimulated, cell size >800 μm^2 as marker of activation
[8] = Rattus norvegicus, Microglia, primary microglia HTS, 10 μM, LPS-stimulated, cell size >800 μm^2 as marker of activation; read-out: LPS % inhibition
[9] = classification by fibrin and LPS inhibition in HTS
[10] = primary microglia HTS, fibrin stimulation, cell size >800 μm2 as marker of activation
[11] = classification by fibrin and LPS inhibition, HTS at 10 μM
[12] = primary microglia HTS, fibrin stimulation, compounds at 10 μM
[13] = Rattus norvegicus, Microglia, primary microglia HTS, LPS stimulation, compounds at 10 μM; read-out: LPS % inhibition
[14] = read-out: Fibrin IC50 (uM) (Suppl. Table 7)
[15] = read-out: LPS IC50 (uM) (Suppl. Table 7)
[16] = Rattus norvegicus, Microglia, 48 h, read-out: LPS % inhibition
[17] = Rattus norvegicus, Microglia, read-out: LPS % inhibition
[18] = quadrant by fibrin and LPS inhibition in HTS of 1907 compounds
[19] = primary microglia HTS, fibrin stimulation, activation = cell size >800 μm2
[20] = Rattus norvegicus, Microglia, 48 h, primary microglia HTS, LPS stimulation, activation = cell size >800 μm2; read-out: LPS % inhibition
[21] = primary microglia HTS, fibrin stimulation, increased cell size (>800 μm^2) as marker of activation
[22] = Rattus norvegicus, Microglia, 48 h, primary microglia HTS, LPS stimulation; increased cell size (>800 μm^2) as marker of activation; read-out: LPS % inhibition
[23] = Rattus norvegicus, Microglia, 48 h; read-out: LPS % inhibition

Compound: COc1cc(C(=O)NS(=O)(=O)c2ccccc2C)ccc1Cc1cn(C)c2ccc(NC(=O)OC3CCCC3)cc12 [Zafirlukast]
- Quadrant (FIG. 5b) [1, 6]: Q4
- Fibrin % cell toxicity (primary rat microglia [2]; rat): 0%
- LPS % cell toxicity (primary rat microglia [3]; rat): 1%
- inhibition at 10 µM [4, 7]: -21%
- inhibition at 10 µM [5, 8]: 3%

Compound: CC(=O)O[C@H]1CC[C@@]2(C)C(=CC[C@@H]3[C@@H]2CC[C@]2(C)C(=O)CC[C@@H]32)C1 [Praesterone Acetate, Prasterone Acetate]
- Quadrant (FIG. 5b) [1, 9]: Q4
- Fibrin % cell toxicity (primary rat microglia [2]): 1%
- LPS % cell toxicity (primary rat microglia [3]): 0%
- Fibrin % inhibition [4, 10]: −3%
- LPS % inhibition [5]: 5%

Compound: Cc1c(O)c(=O)ccn1C [Deferiprone]
- Quadrant (FIG. 5b) [1, 11]: Q4
- Fibrin % cell toxicity (primary rat microglia [2]; rat): 1%
- LPS % cell toxicity (primary rat microglia [3]; rat): 0%
- inhibition at 10 µM [4, 12]: 31%
- inhibition at 10 µM [5, 13]: 18%

Compound: C[C@@H]1C[C@H]2[C@@H]3C[C@H](F)C4=CC(=O)C=C[C@]4(C)[C@@]3(F)[C@@H](O)C[C@]2(C)[C@@]1(O)C(=O)COC(=O)C(C)(C)C [Flumethazone pivalate, reference compound]
- Activity [1]: fib/LPS
- Cherry-picked Hit (Suppl. Table 7) [1]: HIT (key: HIT: Hits were defined as molecules that exhibited greater than 50% inhibition of either fibrin or LPS activation)
- Hit [1]: HIT (key: HIT: Hits were defined as molecules that exhibited greater than 50% inhibition of either fibrin or LPS activation)
- Quadrant (FIG. 5b) [1]: Q2
- Fibrin % cell toxicity (primary rat microglia [2]): 1%
- IC50 (primary rat microglia [2]): > 20000 nM
- IC50 (primary rat microglia [3]): > 20000 nM
- LPS % cell toxicity (primary rat microglia [3]): 3%
- Fibrin % inhibition [4]: 101%
- Fibrin Selectivity [4]: 4
- Fibrin Selectivity (LOG10) [4]: 0.58
- fib specificity [4]: 1.0
- fib_HS [4]: −0.23
- IC50 ([4]; read-out: Fibrin IC50): < 0.001 µM
- IC50 [4, 14]: < 0.001 µM
- LPS % inhibition [5]: 94%
- LPS specificity [5]: 1.0
- LPS_HS [5]: 0.00
- IC50 ([5]; read-out: LPS IC50): 0.004 µM
- IC50 [5, 15]: 0.004 µM

Compound: CN(C)CCCN1c2ccccc2Sc2ccc(Cl)cc21.Cl
- Quadrant (FIG. 5b) [1]: Q4
- Fibrin % cell toxicity (primary rat microglia [2]): 2%
- LPS % cell toxicity (primary rat microglia [3]): 1%
- Fibrin % inhibition ([4]; 10 µM): 9%
- LPS % inhibition ([5]; 10 µM): 25%

Compound: OC(Cn1cncn1)(Cn1cncn1)c1ccc(F)cc1F [Fluconazole]
- Quadrant (FIG. 5b) [1]: Q4
- Fibrin % cell toxicity (primary rat microglia [2]; rat): 0%
- LPS % cell toxicity (primary rat microglia [3]; rat): 0%
- inhibition at 10 µM [4]: 3%
- inhibition at 10 µM [5, 16]: 19%

Compound: O=C([O-])C[C@H](O)C[C@H](O)/C=C/c1c(C2CC2)nc2ccccc2c1-c1ccc(F)cc1.O=C([O-])C[C@H](O)C[C@H](O)/C=C/c1c(C2CC2)nc2ccccc2c1-c1ccc(F)cc1.[Ca+2] [Pitavastatin calcium, reference compound]
- Cherry-picked Hit (Suppl. Table 7) [1]: HIT (key: HIT: Hits were defined as molecules that exhibited greater than 50% inhibition of either fibrin or LPS activation)
- Hit [1]: HIT (key: HIT: Hits were defined as molecules that exhibited greater than 50% inhibition of either fibrin or LPS activation)
- Quadrant (FIG. 5b) [1]: Q2
- Fibrin % cell toxicity (primary rat microglia [2]): 1%
- IC50 (primary rat microglia [2]): > 20000 nM
- IC50 (primary rat microglia [3]): > 20000 nM
- LPS % cell toxicity (primary rat microglia [3]): 1%
- Fibrin % inhibition [4]: 100%
- Fibrin Selectivity [4]: 4
- Fibrin Selectivity (LOG10) [4]: 0.61
- IC50 ([4]; read-out: Fibrin IC50): 1 µM
- IC50 [4, 14]: 1 µM
- LPS % inhibition [5]: 66%
- IC50 ([5]; read-out: LPS IC50): 5 µM
- IC50 [5, 15]: 5 µM

Compound: CCCN1CCCC[C@H]1C(=O)Nc1c(C)cccc1C [Ropivacaine, Ropivacaine Hydrochloride]
- Quadrant (FIG. 5b) [1, 9]: Q4
- Fibrin % cell toxicity (primary rat microglia [2]): 1%
- LPS % cell toxicity (primary rat microglia [3]): 0%
- Fibrin % inhibition [4, 10]: 18%
- LPS % inhibition [5]: 5%

Compound: O.OC[C@@H](O)[C@@H](O[C@@H]1O[C@H](CO)[C@H](O)[C@H](O)[C@H]1O)[C@H](O)[C@@H](O)CO [D-lactitol Monohydrate]
- Quadrant (FIG. 5b) [1, 11]: Q4
- Fibrin % cell toxicity (primary rat microglia [2]): 1%
- LPS % cell toxicity (primary rat microglia [3]): 0%
- Fibrin % inhibition [4, 12]: 11%
- LPS % inhibition ([5]; primary microglia HTS, LPS stimulation, compounds at 10 μM): 16%

Compound: c1ccc(C2CN3CCSC3=N2)cc1 (stereo not shown) [Tetramizole Hydrochloride]
- Quadrant (FIG. 5b) [1]: Q2
- Fibrin % cell toxicity (primary rat microglia [2]; rat): 8%
- LPS % cell toxicity (primary rat microglia [3]; rat): 5%
- inhibition at 10 µM [4]: 107%
- inhibition at 10 µM [5, 17]: 112%

Compound: CC(C)C(=O)Nc1ccc([N+](=O)[O-])c(C(F)(F)F)c1 [Flutamide]
- Quadrant (FIG. 5b) [1, 18]: Q4
- Fibrin % cell toxicity (primary rat microglia [2]; rat): 1%
- LPS % cell toxicity (primary rat microglia [3]; rat): 0%
- inhibition at 10 µM [4, 19]: 15%
- inhibition at 10 µM [5, 20]: 23%

Compound: CC(Cc1ccc(O)cc1)NCC(O)c1cc(O)cc(O)c1 (stereo not shown) [Fenoterol]
- Quadrant (FIG. 5b) [1, 18]: Q4
- Fibrin % cell toxicity (primary rat microglia [2]; rat): 0%
- LPS % cell toxicity (primary rat microglia [3]; rat): 0%
- inhibition at 10 µM [4, 19]: 40%
- inhibition at 10 µM [5, 20]: 26%

Compound: N[C@@H](Cc1ccc(O)c(O)c1)C(=O)O [Levodopa]
- Quadrant (FIG. 5b) [1, 18]: Q4
- Fibrin % cell toxicity (primary rat microglia [2]; rat): 1%
- LPS % cell toxicity (primary rat microglia [3]; rat): 0%
- inhibition at 10 µM [4, 19]: 17%
- inhibition at 10 µM [5, 20]: -5%

Compound: NNCCc1ccccc1 [Phenelzine]
- Quadrant (FIG. 5b) [1]: Q4
- Fibrin % cell toxicity (primary rat microglia [2]; rat): 1%
- LPS % cell toxicity (primary rat microglia [3]; rat): 0%
- inhibition at 10 µM [4]: 2%
- inhibition at 10 µM [5, 16]: -4%

Compound: CC[C@@H](CO)NC(=O)[C@@H]1C=C2c3cccc4[nH]cc(c34)C[C@H]2N(C)C1 [Methylergometrine]
- Quadrant (FIG. 5b) [1, 18]: Q4
- Fibrin % cell toxicity (primary rat microglia [2]; rat): 0%
- LPS % cell toxicity (primary rat microglia [3]; rat): 0%
- inhibition at 10 µM [4, 21]: -43%
- inhibition at 10 µM [5, 22]: 7%

Compound: N[C@@H](CC(=O)O)C(=O)O [L-aspartic Acid, Aspartic Acid (I)]
- Quadrant (FIG. 5b) [1, 18]: Q4
- Fibrin % cell toxicity (primary rat microglia [2]): 1%
- LPS % cell toxicity (primary rat microglia [3]): 1%
- Fibrin % inhibition [4, 19]: 5%
- LPS % inhibition ([5]; primary microglia HTS, LPS stimulation, activation = cell size >800 μm2): 13%

Compound: Cc1ncc(CO)c(CO)c1O [Pyridoxine]
- Quadrant (FIG. 5b) [1, 9]: Q4
- Fibrin % cell toxicity (primary rat microglia [2]; rat): 1%
- LPS % cell toxicity (primary rat microglia [3]; rat): 0%
- inhibition at 10 µM [4, 10]: 1%
- inhibition at 10 µM [5, 23]: 21%

Compound: CCc1cccc2c3c([nH]c12)C(CC)(CC(=O)O)OCC3 (stereo not shown) [Etodolac]
- Quadrant (FIG. 5b) [1, 11]: Q4
- Fibrin % cell toxicity (primary rat microglia [2]; rat): 0%
- LPS % cell toxicity (primary rat microglia [3]; rat): 1%
- inhibition at 10 µM [4, 12]: -87%
- inhibition at 10 µM [5, 13]: 14%

Compound: COC(=O)C1=C(C)NC(C)=C(C(=O)OCC(C)C)C1c1ccccc1[N+](=O)[O-] (stereo not shown) [Nisoldipine]
- Quadrant (FIG. 5b) [1, 18]: Q4
- Fibrin % cell toxicity (primary rat microglia [2]; rat): 1%
- LPS % cell toxicity (primary rat microglia [3]; rat): 1%
- inhibition at 10 µM [4, 21]: 6%
- inhibition at 10 µM [5, 22]: 25%

Compound: CCN[C@H]1C[C@H](C)S(=O)(=O)c2sc(S(N)(=O)=O)cc21 [Dorzolamide]
- Quadrant (FIG. 5b) [1]: Q4
- Fibrin % cell toxicity (primary rat microglia [2]; rat): 1%
- LPS % cell toxicity (primary rat microglia [3]; rat): 1%
- inhibition at 10 µM [4]: -40%
- inhibition at 10 µM [5, 17]: 15%

Compound: CCCC(CCC)C(=O)O [Valproic Acid]
- Quadrant (FIG. 5b) [1, 6]: Q4
- Fibrin % cell toxicity (primary rat microglia [2]; rat): 0%
- LPS % cell toxicity (primary rat microglia [3]; rat): 0%
- inhibition at 10 µM [4, 7]: -28%
- inhibition at 10 µM [5, 8]: 27%

Compound: Clc1ccccc1C(c1ccccc1)(c1ccccc1)n1ccnc1 [Clotrimazole]
- Quadrant (FIG. 5b) [1]: Q4
- Fibrin % cell toxicity (primary rat microglia [2]; rat): 1%
- LPS % cell toxicity (primary rat microglia [3]; rat): 0%
- inhibition at 10 µM [4]: -13%
- inhibition at 10 µM [5, 17]: 13%

Compound: CNC(=O)Oc1ccc2c(c1)[C@]1(C)CCN(C)[C@@H]1N2C [Physostigmine]
- Quadrant (FIG. 5b) [1, 9]: Q4
- Fibrin % cell toxicity (primary rat microglia [2]; rat): 0%
- LPS % cell toxicity (primary rat microglia [3]; rat): 0%
- inhibition at 10 µM [4, 10]: -73%
- inhibition at 10 µM [5, 23]: 18%

Compound: C[N+](C)(C)CC(=O)O [Trimethyl Glycine]
- Quadrant (FIG. 5b) [1]: Q4
- Fibrin % cell toxicity (primary rat microglia [2]): 0%
- LPS % cell toxicity (primary rat microglia [3]): 0%
- Fibrin % inhibition ([4]; 10 µM): −14%
- LPS % inhibition ([5]; 10 µM): 22%
